Reference: patent US4593104A, “2-halo-N-(azole-1-yl-methyl)-substituted acetanilides” (BASF Aktiengesellschaft, priority 1976, dated 1986)

What was measured:
Test in all cases: preemergence treatment in the greenhouse, % damage
Glyc. max = format: in vivo, Glycine max
How it was run: (§1)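 Test species were sown separately in sandy loam and held at 25–40 °C (heat-loving) or 15–30 °C (temperate). Actives in water went onto the soil surface immediately (preemergence) or onto 3–10 cm plants (postemergence). A 0–100 scale rates emergence loss or destruction over 4–6 weeks.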

Gossyp. hirs. = format: in vivo, Gosspyium hirsutum
From the text: The vessels employed were plastic flowerpots having a volume of 300 cm^3; the substrate was a sandy loam containing about 1.5% humus. The seeds of the test plants (see Table 1) were sown shallow, and separated according to species. In the case of Cyperus esculentus, pregerminated tubers were planted. In the preemergence treatment, the active ingredients were then immediately applied to the surface of the soil. They were suspended or emulsified in water as the vehicle, and sprayed through atomizing nozzles. After the agents had been applied, the vessels were lightly sprinkler-irrigated to set germination and growth going, and to activate the chemical agents. The vessels were then covered with transparent plastic hoods until the plants had taken root. This cover ensured uniform germination of the test plants (to the extent that this was not impaired by the chemicals), and prevented readily volatile substances from evaporating.
For postemergence treatment, the plants were first grown to a height of from 3 to 10 cm, depending on their habit, before treated. Hoods were not placed on the pots. The experiments were set up in the greenhouse, hotter areas (25° to 40° C.) being preferred for heat-loving species, and 15° to 30° C. for plants from moderate climates. The experiments were carried out for from 4 to 6 weeks. During this period the plants were tended and their reaction to the various treatments was assessed. The following tables contain the substances investigated, the application rates in kg/ha of active ingredient, and the test plant species. Assessments were made on a 0 to 100 scale, 0 denoting no damage or normal emergence, and 100 denoting no emergence or complete destruction of at least the visible plant parts.

Cyp. diff. = format: in vivo
How it was run: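 Plants in humus-poor sandy loam (~1.5%) received kg/ha doses of active as aqueous spray. Preemergence sprays preceded irrigation and hooding until rooting; postemergence sprays, without hoods, hit 3–10 cm plants. Injury was assessed 0–100 across 4–6 weeks.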

Panic. virg. = format: in vivo
How it was run: as §1

Solanum nigrum = format: in vivo
How it was run: as §1

Sida spin. = format: in vivo
How it was run: as §1

Lept. spp. = format: in vivo
How it was run: as §1

Echin. c.g. = format: in vivo
How it was run: as §1

Ipom. spp. = format: in vivo
How it was run: as §1

Cenchr. ech. = format: in vivo
How it was run: as §1

Amar. retro. = format: in vivo
How it was run: as §1

CCc1cccc(CC)c1N(Cn1nc(C)cc1C)C(=O)CCl [Compound 41]
% damage (Glyc. max; 0.25 kg/ha): 0%
% damage (Glyc. max; 0.5 kg/ha): 0%
% damage (Glyc. max; 1.0 kg/ha): 0%
% damage (Glyc. max; 2.0 kg/ha): 0%
% damage (Gossyp. hirs.; 0.25 kg/ha): 0%
% damage (Gossyp. hirs.; 0.5 kg/ha): 8%
% damage (Gossyp. hirs.; 1.0 kg/ha): 8%
% damage (Gossyp. hirs.; 2.0 kg/ha): 10%
% damage (Cyp. diff.; 0.25 kg/ha): 100%
% damage (Cyp. diff.; 0.5 kg/ha): 100%
% damage (Cyp. diff.; 1.0 kg/ha): 100%
% damage (Panic. virg.; 0.25 kg/ha): 85%
% damage (Panic. virg.; 0.5 kg/ha): 85%
% damage (Panic. virg.; 1.0 kg/ha): 100%
% damage (Panic. virg.; 2.0 kg/ha): 100%
% damage (Solanum nigrum; 0.25 kg/ha): 70%
% damage (Solanum nigrum; 0.5 kg/ha): 90%
% damage (Solanum nigrum; 1.0 kg/ha): 98%
% damage (Solanum nigrum; 2.0 kg/ha): 100%
% damage (Sida spin.; 1.0 kg/ha): 45%
% damage (Sida spin.; 2.0 kg/ha): 90%
% damage (Lept. spp.; 0.25 kg/ha): 95%
% damage (Lept. spp.; 0.5 kg/ha): 95%
% damage (Lept. spp.; 1.0 kg/ha): 95%
% damage (Lept. spp.; 2.0 kg/ha): 95%
% damage (Echin. c.g.; 0.25 kg/ha): 95%
% damage (Echin. c.g.; 0.5 kg/ha): 100%
% damage (Echin. c.g.; 1.0 kg/ha): 100%
% damage (Echin. c.g.; 2.0 kg/ha): 100%
% damage (Ipom. spp.; 1.0 kg/ha): 50%
% damage (Ipom. spp.; 2.0 kg/ha): 90%
% damage (Cenchr. ech.; 0.25 kg/ha): 90%
% damage (Cenchr. ech.; 0.5 kg/ha): 92%
% damage (Cenchr. ech.; 1.0 kg/ha): 100%
% damage (Cenchr. ech.; 2.0 kg/ha): 100%
% damage (Amar. retro.; 0.25 kg/ha): 73%
% damage (Amar. retro.; 0.5 kg/ha): 97%
% damage (Amar. retro.; 1.0 kg/ha): 100%
% damage (Amar. retro.; 2.0 kg/ha): 100%
